From patent US20260374766A1, “METHODS FOR TREATING CANCER” (Antares Therapeutics, Inc., priority 2022, published 2026)

Key:
[1] = molecular target: T1, p53 Y220C mutant protein (amino acid residues 94-293) (Homo sapiens, UniProt P04637, Y220C); assay: Surface Plasmon Resonance (SPR) assay, Kd_kinetic; assay type: binding; details: SPR, kinetic KD, p53 Y220C; read-out: SPR P53 Y220C KD kinetic
T1 construct: p53 Y220C mutant protein (amino acid residues 94-293)
How it was run: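 Biacore 8K SPR; 16 or 20 °C; Tris 50 mM pH 7.5, NaCl 100 mM, DTT 1 mM, Brij35 0.01%, Tween-20 0.05%, DMSO 1%. Kd_kinetic by 1:1 fit.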

p53 Y220C = p53 Y220C (Homo sapiens, UniProt P04637, Y220C); assay: Luciferase Reporter Assay (Luc), p53 response element, NClH1299 cells with inducible p53 Y220C; assay type: cell-based; details: luciferase reporter, NClH1299 inducible p53 Y220C, 6 hour; for Emax: 10 uM tool compound as positive control; for AC50: read-out: Luc P53 Y220C AC50
How it was run: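 Steps: seed 5,000 cells/well; induce mutant p53 with 0.5 ug/mL doxycycline for 24 h; treat with compound 6 h; add equal volume One-Glo, shake 5 min at room temperature; measure luciferase immediately.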

NUGC3 p53 Y220C = assay: Cell Proliferation Assay (CellTiter-Glo, CTG), NUGC3 p53 Y220C; assay type: cell-based; details: Homo sapiens, NUGC-3, 120 h, CellTiter-Glo, NUGC3 p53 Y220C, 5 days
How it was run: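 Tet-One inducible p53 Y220C or R273H constructs were stably introduced into NCI-H1299 by lentiviral transduction; NUGC3 was used as is. Cells (250-500 per well) were exposed to compound for 5 days, then CellTiter-Glo was added for 10 min at room temperature and IC50 was calculated from luminescence.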

H1299 p53 Y220C = assay: Cell Proliferation Assay (CellTiter-Glo, CTG), H1299 p53 Y220C (NClH1299-inducible p53 Y220C); assay type: cell-based; details: Homo sapiens, NCI-H1299, 120 h, CellTiter-Glo, H1299 p53 Y220C, 5 days
How it was run: (§1)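 NClH1299 lines stably transduced with Tet-inducible p53 Y220C or R273H, plus NUGC3, were treated with compound for 5 days at 250-500 cells/well. IC50 derived from CellTiter-Glo luminescent signal after 10 min room-temperature incubation.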

H1299 p53 R273H = assay: Cell Proliferation Assay (CellTiter-Glo, CTG), H1299 p53 R273H (NClH1299-inducible p53 R273H); assay type: cell-based; details: Homo sapiens, NCI-H1299, 120 h, CellTiter-Glo, H1299 p53 R273H, 5 days
How it was run: as §1

[2] = molecular target: T1, p53 Y220C mutant protein (amino acid residues 94-293); assay: Thermal Shift Assay (TSA), dTM; assay type: binding; details: thermal shift, 100 uM compound; read-out: TSA P53 Y220C dTM (100 uM)
How it was run: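 5 μM protein + 10 μM or 100 μM cpd, 3 h, 20 °C; 20 mM HEPES pH7.4, 100 mM NaCl, 0.01% Pluronic F-127, 1% DMSO, Sypro Orange 400-fold dil. Ramp 30→50 °C, 0.03 °C/s. TM by Boltzmann two-state fit.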

| Compound | Kd [1] [µM] | Emax (p53 Y220C) [%] | AC50 (p53 Y220C) [µM] | IC50 (H1299 p53 Y220C) [µM] | IC50 (H1299 p53 R273H) [µM] | ΔTm at 100 µM [2] [°C] | IC50 (NUGC3 p53 Y220C) [µM] |
| --- | --- | --- | --- | --- | --- | --- | --- |
| COc1cc(C(=O)NC(C)C)ccc1NCC#Cc1nc2c(N[C@@H]3CCN(C)C[C@@H]3F)cccn2c1CC(F)(F)F [Example 48, 4-{[3-(8-{[(3S,4R)-3-fluoro-1-methylpiperidin-4-yl]amino}-3-(2,2,2-trifluoroethyl)imidazo[1,2-a]pyridin-2-yl)prop-2-yn-1-yl]amino}-N-isopropyl-3-methoxybenzamide] | < 0.01 | 70 to 80 | 0.75 to 1.5 | < 0.75 | 5 to 8 | ≥ 10 | 0.75 to 1.5 |
| COc1cc(C(=O)N2CCCC2)ccc1NCC#Cc1nc2c(N[C@@H]3CCN(C)C[C@@H]3F)cccn2c1CC(F)(F)F [Example 50, (3S,4R)-3-fluoro-N-[2-(3-{[2-methoxy-4-(pyrrolidine-1-carbonyl)phenyl]amino}prop-1-yn-1-yl)-3-(2,2,2-trifluoroethyl)imidazo[1,2-a]pyridin-8-yl]-1-methylpiperidin-4-amine] | 0.01 to 0.1 | < 70 | 0.75 to 1.5 | 0.75 to 1.5 | ≥ 10 | ≥ 10 | 0.75 to 1.5 |
| CNC(=O)c1ccc(NCC#Cc2nc3c(N[C@@H]4CCN(C)C[C@@H]4F)cccn3c2CC(F)(F)F)cn1 [Example 52, 5-{[3-(8-{[(3S,4R)-3-fluoro-1-methylpiperidin-4-yl]amino}-3-(2,2,2-trifluoroethyl)imidazo[1,2-a]pyridin-2-yl)prop-2-yn-1-yl]amino}-N-methylpyridine-2-carboxamide] | 0.01 to 0.1 | 70 to 80 | > 3 | 1.5 to 3 | ≥ 10 | 5 to 10 | > 3 |
| CNC(=O)c1ccc(NCC#Cc2nc3c(N[C@@H]4CCN(C)C[C@@H]4F)cccn3c2CC(F)(F)F)c(OC(F)(F)F)c1 [Example 53, 4-{[3-(8-{[(3S,4R)-3-fluoro-1-methylpiperidin-4-yl]amino}-3-(2,2,2-trifluoroethyl)imidazo[1,2-a]pyridin-2-yl)prop-2-yn-1-yl]amino}-N-methyl-3-(trifluoromethoxy) benzamide] | 0.01 to 0.1 | 70 to 80 | > 3 | 1.5 to 3 | ≥ 10 | 5 to 10 | 1.5 to 3 |
| CCc1cc(C(=O)NC)ccc1NCC#Cc1nc2c(N[C@@H]3CCN(C)C[C@@H]3F)cccn2c1CC(F)(F)F [Example 58, 3-ethyl-4-{[3-(8-{[(3S,4R)-3-fluoro-1-methylpiperidin-4-yl]amino}-3-(2,2,2-trifluoroethyl)imidazo[1,2-a]pyridin-2-yl)prop-2-yn-1-yl]amino}-N-methylbenzamide] | < 0.01 | 70 to 80 | > 3 | > 3 | ≥ 10 | 5 to 10 | > 3 |
| CCOc1cc(C(=O)NC)ccc1NCC#Cc1nc2c(N[C@@H]3CCN(C)C[C@@H]3F)cccn2c1CC(F)(F)F [Example 59, 3-ethoxy-4-{[3-(8-{[(3S,4R)-3-fluoro-1-methylpiperidin-4-yl]amino}-3-(2,2,2-trifluoroethyl)imidazo[1,2-a]pyridin-2-yl)prop-2-yn-1-yl]amino}-N-methylbenzamide] | < 0.01 | 70 to 80 | 1.5 to 3 | 0.75 to 1.5 | ≥ 10 | 5 to 10 | 0.75 to 1.5 |
| CNC(=O)c1ccc(NCC#Cc2nc3c(N[C@@H]4CCN(C)C[C@@H]4F)cccn3c2CC(F)(F)F)c(OC(F)F)c1 [Example 60, 3-(difluoromethoxy)-4-{[3-(8-{[(3S,4R)-3-fluoro-1-methylpiperidin-4-yl]amino}-3-(2,2,2-trifluoroethyl)imidazo[1,2-a]pyridin-2-yl)prop-2-yn-1-yl]amino}-N-methylbenzamide] | < 0.01 | 70 to 80 | > 3 | 1.5 to 3 | ≥ 10 | ≥ 10 | 1.5 to 3 |

Now from value to compound, other results behind:

| Kd [1] [µM] | Emax (p53 Y220C) [%] | AC50 (p53 Y220C) [µM] | IC50 (H1299 p53 Y220C) [µM] | IC50 (H1299 p53 R273H) [µM] | ΔTm at 100 µM [2] [°C] | Compound | IC50 (NUGC3 p53 Y220C) [µM] |
| --- | --- | --- | --- | --- | --- | --- | --- |
| 0.01 to 0.1 | 70 to 80 | > 3 | 1.5 to 3 | ≥ 10 | ≥ 10 | CCNC(=O)c1ccc(NCC#Cc2nc3c(N[C@@H]4CCN(C)C[C@@H]4F)cccn3c2CC(F)(F)F)c(OC)c1 [Example 47, N-ethyl-4-{[3-(8-{[(3S,4R)-3-fluoro-1-methylpiperidin-4-yl]amino}-3-(2,2,2-trifluoroethyl)imidazo[1,2-a]pyridin-2-yl)prop-2-yn-1-yl]amino}-3-methoxybenzamide] | > 3 |
| 0.01 to 0.1 | 70 to 80 | 0.75 to 1.5 | 0.75 to 1.5 | 8 to 10 | ≥ 10 | COc1cc(C(=O)NC2CC2)ccc1NCC#Cc1nc2c(N[C@@H]3CCN(C)C[C@@H]3F)cccn2c1CC(F)(F)F [Example 49, N-cyclopropyl-4-{[3-(8-{[(3S,4R)-3-fluoro-1-methylpiperidin-4-yl]amino}-3-(2,2,2-trifluoroethyl)imidazo[1,2-a]pyridin-2-yl)prop-2-yn-1-yl]amino}-3-methoxybenzamide] | 0.75 to 1.5 |
| 0.01 to 0.1 | 70 to 80 | > 3 | > 3 | ≥ 10 | ≥ 10 | CNC(=O)c1ccc(NCC#Cc2nc3c(N[C@@H]4CCN(C)C[C@@H]4F)cccn3c2CC(F)(F)F)c(C(F)(F)F)c1 [Example 54, 4-{[3-(8-{[(3S,4R)-3-fluoro-1-methylpiperidin-4-yl]amino}-3-(2,2,2-trifluoroethyl)imidazo[1,2-a]pyridin-2-yl)prop-2-yn-1-yl]amino}-N-methyl-3-(trifluoromethyl)benzamide] | > 3 |
| 0.01 to 0.1 | > 90 | 0.75 to 1.5 | 0.75 to 1.5 | ≥ 10 | ≥ 10 | CNC(=O)c1ccc(NCC#Cc2nc3c(N[C@@H]4CCN(C)C[C@@H]4F)cccn3c2CC(F)(F)F)c(Cl)c1 [Example 55, 3-chloro-4-{[3-(8-{[(3S,4R)-3-fluoro-1-methylpiperidin-4-yl]amino}-3-(2,2,2-trifluoroethyl)imidazo[1,2-a]pyridin-2-yl)prop-2-yn-1-yl]amino}-N-methylbenzamide] | 0.75 to 1.5 |
| 0.01 to 0.1 | 80 to 90 | > 3 | > 3 | ≥ 10 | ≥ 10 | CNC(=O)c1ccc(NCC#Cc2nc3c(N[C@@H]4CCN(C)C[C@@H]4F)cccn3c2CC(F)(F)F)c(C#N)c1 [Example 56, 3-cyano-4-{[3-(8-{[(3S,4R)-3-fluoro-1-methylpiperidin-4-yl]amino}-3-(2,2,2-trifluoroethyl)imidazo[1,2-a]pyridin-2-yl)prop-2-yn-1-yl]amino}-N-methylbenzamide] | > 3 |
| 0.01 to 0.1 | 70 to 80 | > 3 | > 3 | ≥ 10 | ≥ 10 | CNC(=O)c1ccc(NCC#Cc2nc3c(N[C@@H]4CCN(C)C[C@@H]4F)cccn3c2CC(F)(F)F)c(C2CC2)c1 [Example 57, 3-cyclopropyl-4-{[3-(8-{[(3S,4R)-3-fluoro-1-methylpiperidin-4-yl]amino}-3-(2,2,2-trifluoroethyl)imidazo[1,2-a]pyridin-2-yl)prop-2-yn-1-yl]amino}-N-methylbenzamide] | > 3 |
| 0.01 to 0.1 | 80 to 90 | 0.75 to 1.5 | < 0.75 | ≥ 10 | 5 to 10 | CNC(=O)c1ccc(NCC#Cc2nc3c(N[C@@H]4CCN(C)C[C@@H]4F)cccn3c2CC(F)(F)F)c(OCC(F)(F)F)c1 [Example 61, 4-{[3-(8-{[(3S,4R)-3-fluoro-1-methylpiperidin-4-yl]amino}-3-(2,2,2-trifluoroethyl)imidazo[1,2-a]pyridin-2-yl)prop-2-yn-1-yl]amino}-N-methyl-3-(2,2,2-trifluoroethoxy)benzamide] | 0.75 to 1.5 |
